Measurements as given in the supplement of paper PMC4862054.

Columns and labels:
Settings in all cases: incubation time: 72 h
CAL-148 [1] = experiment: normalised response (% of control), CellTox Green; higher = less cell death (100 = DMSO, 0 = benzethonium chloride kill control)
In short: (§1)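 Normalised signals at single concentrations make up the values. They come from breast cancer cell lines seeded (20 µl suspension) into 384-well plates with compound at 5 concentrations in 10-fold steps over a compound-specific 10,000-fold range, incubated 72 h, and read for CellTox Green fluorescence then CellTiter-Glo luminescence. Each plate was normalised to 0.1 % DMSO (100) and a positive kill control (0).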

MDA-MB-453 [2] = experiment: as above
In short: as §1

HDQ-P1 [3] = experiment: as above
In short: as §1

DU-4475 [4] = experiment: as above
In short: as §1

HCC1143 [5] = experiment: as above
In short: as §1

CAL-51 [6] = experiment: as above
In short: as §1

BT-549 [7] = experiment: as above
In short: as §1

HCC1937 [8] = experiment: as above
In short: as §1

CAL-85-1 [9] = experiment: as above
In short: as §1

MDA-MB-231 [10] = experiment: as above
In short: as §1

MCF-10A [11] = experiment: as above
In short: as §1

BT-474 [12] = experiment: as above
In short: as §1

MDA-MB-436 [13] = experiment: as above
In short: as §1

HCC1599 [14] = experiment: as above
In short: as §1

MFM-223 [15] = experiment: as above
In short: as §1

Hs578T [16] = experiment: as above
In short: as §1

MDA-MB-468 [17] = experiment: as above
In short: as §1

CAL-120 [18] = experiment: as above
In short: as §1

CAL-148 [19] = experiment: normalised response (% of control), CellTiter-Glo; higher = more viable cells (100 = DMSO, 0 = benzethonium chloride kill control)
In short: as §1

MDA-MB-453 [20] = experiment: as above
In short: as §1

HDQ-P1 [21] = experiment: as above
In short: as §1

DU-4475 [22] = experiment: as above
In short: as §1

HCC1143 [23] = experiment: as above
In short: as §1

CAL-51 [24] = experiment: as above
In short: as §1

BT-549 [25] = experiment: as above
In short: as §1

HCC1937 [26] = experiment: as above
In short: as §1

CAL-85-1 [27] = experiment: as above
In short: as §1

MDA-MB-231 [28] = experiment: as above
In short: as §1

MCF-10A [29] = experiment: as above
In short: as §1

BT-474 [30] = experiment: as above
In short: as §1

MDA-MB-436 [31] = experiment: as above
In short: as §1

HCC1599 [32] = experiment: as above
In short: as §1

SK-BR-3 = experiment: as above
In short: as §1

MFM-223 [33] = experiment: as above
In short: as §1

Hs578T [34] = experiment: as above
In short: as §1

MDA-MB-468 [35] = experiment: as above
In short: as §1

CAL-120 [36] = experiment: as above
In short: as §1

Compound	normalised response (CAL-148 [1]) [%]	normalised response (MDA-MB-453 [2]) [%]	normalised response (HDQ-P1 [3]) [%]	normalised response (DU-4475 [4]) [%]	normalised response (HCC1143 [5]) [%]	normalised response (CAL-51 [6]) [%]	normalised response (BT-549 [7]) [%]	normalised response (HCC1937 [8]) [%]	normalised response (CAL-85-1 [9]) [%]	normalised response (MDA-MB-231 [10]) [%]	normalised response (MCF-10A [11]) [%]	normalised response (BT-474 [12]) [%]	normalised response (MDA-MB-436 [13]) [%]	normalised response (HCC1599 [14]) [%]	normalised response (MFM-223 [15]) [%]	normalised response (Hs578T [16]) [%]	normalised response (MDA-MB-468 [17]) [%]	normalised response (CAL-120 [18]) [%]	normalised response (CAL-148 [19]) [%]	normalised response (MDA-MB-453 [20]) [%]	normalised response (HDQ-P1 [21]) [%]	normalised response (DU-4475 [22]) [%]	normalised response (HCC1143 [23]) [%]	normalised response (CAL-51 [24]) [%]	normalised response (BT-549 [25]) [%]	normalised response (HCC1937 [26]) [%]	normalised response (CAL-85-1 [27]) [%]	normalised response (MDA-MB-231 [28]) [%]	normalised response (MCF-10A [29]) [%]	normalised response (BT-474 [30]) [%]	normalised response (MDA-MB-436 [31]) [%]	normalised response (HCC1599 [32]) [%]	normalised response (SK-BR-3) [%]	normalised response (MFM-223 [33]) [%]	normalised response (Hs578T [34]) [%]	normalised response (MDA-MB-468 [35]) [%]	normalised response (CAL-120 [36]) [%]
Cc1ccc(-n2nc(C(C)(C)C)cc2NC(=O)Nc2ccc(OCCN3CCOCC3)c3ccccc23)cc1 [Doramapimod] (100 nM)	100	98.1	101	97.7	104	101	77.5	97	85.4	82.1	93.5	94.5	98.5	97.4	99.4	105	89	95.8	79.7	99.4	93	93.7	97.1	99.5	106	89.9	92.4	96.5	85.3	94.2	100	93.7	90.8	91.8	98.7	89.6	99.4
CC(=O)Nc1ccc(C(=O)Nc2ccccc2N)cc1 [Tacedinaline] (10 nM)	95	89.7	104	101	96.9	83.3	85.9	97.9	105	108	104	96.6	80.4	99.9	97.2	106	133	98.8	105	107	96.1	99.6	99.7	86.8	102	94.8	103	98.5	101	101	96.9	104	95.3	101	90.1	104	102
N[C@@H](CSC(c1ccccc1)(c1ccccc1)c1ccccc1)C(=O)O [S-trityl-L-cysteine] (400 nM)	80.7	102	109	97.9	111	110	71.8	61.4	99.5	104	109	94.5	72.6	101	102	79.2	125	97.1	102	104	99	101	102	105	100	98.2	102	101	92.4	102	98.9	112	93.5	103	97.3	105	104
N#CCNC(=O)c1ccc(-c2ccnc(Nc3ccc(N4CCOCC4)cc3)n2)cc1 [Momelotinib] (100 nM)	97.8	101	102	97.5	78.1	83	104	94.6	102	53.8	66.3	100	104	89.7	81.4	93.5	168	98.2	94.1	110	105	95.9	117	70.4	102	97.8	101	94.8	85.6	92.1	99.1	112	95.9	94.8	102	90	97.2
Cn1c(CCCC(=O)O)nc2cc(N(CCCl)CCCl)ccc21 [Bendamustine] (100 nM)	107	105	88.7	103	110	111	101	88.6	89.6	102	73.5	102	91.8	109	105	105	141	97.4	117	125	102	101	111	107	106	105	97.3	104	108	104	97.6	99.1	108	106	103	106	103
C[C@@H](Oc1cc(-c2cnn(C3CCNCC3)c2)cnc1N)c1c(Cl)ccc(F)c1Cl [Crizotinib] (10 nM)	102	105	96.1	103	89.3	84.9	98.6	90.5	89.3	88.4	80.3	100	65.4	109	105	105	230	107	100	107	93.6	103	102	57.6	96.7	98.2	93.5	104	101	102	99	97.4	97.3	99.3	99.9	92.7	100
O=C(O)c1ccc(-c2c[nH]c3ncc(-c4ccccc4)cc23)cc1C1CCCC1 (100 nM)	101	95.8	99	95.1	83.7	84.6	83.6	107	108	89.3	97.3	99.5	95.5	98.6	101	89.5	108	95	88	97.6	96.7	98.2	102	64.1	101	97.1	101	97.3	93.1	93.8	89.5	89.5	97.2	96.2	103	90.6	97.9
CCC1=C[C@@H]2CN(C1)Cc1c([nH]c3ccccc13)[C@@](C(=O)OC)(c1cc3c(cc1OC)N(C)[C@H]1[C@@](O)(C(=O)OC)[C@H](OC(C)=O)[C@]4(CC)C=CCN5CC[C@]31[C@@H]54)C2 [Vinorelbine] (100 nM)	67.3	83.8	93.5	101	85.7	28.6	80.3	88.4	51.3	71.5	-12.8	76.3	90.9	90.6	59.8	49.2	29.7	84.8	42.8	59.7	75.8	91.7	45.6	68.2	31.6	71.4	31.1	74.9	59.5	70.2	38.8	62.8	10.4	59.8	48.1	21	58.1
